Tests used:
[1] = tested on: matrix M2 protein; design: species or system influenza A (H3N2) virus
[2] = tested on: NA of influenza A (H1N1) virus isolate; assay type: biochemical; conditions: read-out: Susceptibility to oseltamivir (mean IC50 ± SD)
[3] = tested on: NA of influenza A (H3N2) virus isolates; assay type: biochemical; conditions: read-out: Susceptibility to oseltamivir (mean IC50 ± SD)

Row | Structure (SMILES) | Susceptibility to adamantanes (S31N mutation in M2 protein) [1] | IC50 [2] [nM] | IC50 [3] [nM]
1 | NC12CC3CC(CC(C3)C1)C2 [amantadine] | resistance | – | –

— article PMC3070406 (The Pediatric infectious disease journal, 2011)
